# Experiments:
# Carbonic anhydrase 1 = Carbonic anhydrase 1 (Homo sapiens, UniProt P00915); experiment: Inhibition of human recombinant carbonic anhydrase 1 expressed in Escherichia coli preincubated for 15 mins by stopped flow CO2 hydration method
# Carbonic anhydrase 12 = Carbonic anhydrase 12 (Homo sapiens, UniProt O43570); experiment: Inhibition of human recombinant carbonic anhydrase 12 expressed in Escherichia coli preincubated for 15 mins by stopped flow CO2 hydration method
# Carbonic anhydrase 9 = Carbonic anhydrase 9 (Homo sapiens, UniProt Q16790)
# Description: Inhibition of human recombinant carbonic anhydrase 9 expressed in Escherichia coli preincubated for 15 mins by stopped flow CO2 hydration method
# Carbonic anhydrase 2 = Carbonic anhydrase 2 (Homo sapiens, UniProt P00918); experiment: Inhibition of human recombinant carbonic anhydrase 2 expressed in Escherichia coli preincubated for 15 mins by stopped flow CO2 hydration method
# [1] = Dissociation constant, acidic pKa of the compound by spectrophotometric analysis
# Sequence of Carbonic anhydrase 1 (P00915 whole entry): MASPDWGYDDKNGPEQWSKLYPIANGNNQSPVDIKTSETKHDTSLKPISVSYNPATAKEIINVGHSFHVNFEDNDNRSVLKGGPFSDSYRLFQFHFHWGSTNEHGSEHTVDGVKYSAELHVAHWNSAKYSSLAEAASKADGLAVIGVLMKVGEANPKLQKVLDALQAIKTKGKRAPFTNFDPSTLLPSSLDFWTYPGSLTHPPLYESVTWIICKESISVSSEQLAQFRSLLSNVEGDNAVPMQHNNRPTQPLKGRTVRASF
# Sequence of Carbonic anhydrase 12 (O43570 whole entry): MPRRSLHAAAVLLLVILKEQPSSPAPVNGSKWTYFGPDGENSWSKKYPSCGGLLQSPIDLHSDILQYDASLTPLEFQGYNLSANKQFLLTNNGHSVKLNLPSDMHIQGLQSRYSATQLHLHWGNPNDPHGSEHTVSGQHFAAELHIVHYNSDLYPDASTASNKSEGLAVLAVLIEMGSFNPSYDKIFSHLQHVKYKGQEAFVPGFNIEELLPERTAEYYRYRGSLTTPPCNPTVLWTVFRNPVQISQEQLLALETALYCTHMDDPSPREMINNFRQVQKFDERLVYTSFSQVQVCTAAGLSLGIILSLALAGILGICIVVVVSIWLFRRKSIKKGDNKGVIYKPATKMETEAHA
Ki (Carbonic anhydrase 1),Ki (Carbonic anhydrase 12),Ki (Carbonic anhydrase 9),Ki (Carbonic anhydrase 2),pKa [1],SMILES
> 50 µM,50 µM,> 50 µM,> 50 µM,,O=C(O)c1cc(-c2ccc(Cl)cc2)n[nH]1
> 50 µM,4.5 µM,42 µM,> 50 µM,,CCc1ccc(-c2cc(C(=O)O)[nH]n2)cc1
> 50 µM,41 µM,> 50 µM,> 50 µM,,O=C(O)c1cc(-c2ccc(O)cc2)n[nH]1
> 50 µM,> 50 µM,49.5 µM,> 50 µM,3.31,COc1ccc(-c2cc(C(=O)O)n[nH]2)cc1
> 50 µM,> 50 µM,45 µM,> 50 µM,,Cc1ccc(-c2cc(C(=O)O)[nH]n2)c(C)c1
> 50 µM,> 50 µM,48 µM,> 50 µM,,Cc1ccc(-c2cc(C(=O)O)[nH]n2)cc1C
> 50 µM,38.5 µM,> 50 µM,> 50 µM,,O=C(O)c1cc(-c2ccc(F)cc2)n[nH]1
> 50 µM,> 50 µM,> 50 µM,> 50 µM,,CC(C)c1ccc(-c2cc(C(=O)O)[nH]n2)cc1
> 50 µM,> 50 µM,> 50 µM,> 50 µM,,Cc1ccc(-c2cc(C(=O)O)[nH]n2)cc1
> 50 µM,,> 50 µM,> 50 µM,,O=C(O)c1cc(-c2ccc3ccccc3c2)[nH]n1
> 50 µM,,39 µM,> 50 µM,,CCCCc1ccc(-c2cc(C(=O)O)n[nH]2)cc1
> 50 µM,,5 µM,> 50 µM,,CC(C)(C)c1ccc(-c2cc(C(=O)O)n[nH]2)cc1
> 50 µM,> 50 µM,23.5 µM,> 50 µM,,Cc1cc(C)c(-c2cc(C(=O)O)n[nH]2)cc1C
> 50 µM,> 50 µM,5 µM,> 50 µM,,Cc1cc(C)c(C)c(-c2cc(C(=O)O)n[nH]2)c1C
> 50 µM,> 50 µM,> 50 µM,> 50 µM,,CCc1cc(CC)c(-c2cc(C(=O)O)n[nH]2)c(CC)c1
> 50 µM,> 50 µM,16 µM,> 50 µM,,CC(C)c1ccc(-c2cc(C(=O)O)n[nH]2)c(C(C)C)c1
> 50 µM,,39 µM,> 50 µM,,CC(C)c1cc(C(C)C)c(-c2cc(C(=O)O)n[nH]2)c(C(C)C)c1
> 50 µM,,> 50 µM,> 50 µM,,O=C(O)c1cc(-c2ccc3c(c2)CCCC3)[nH]n1
> 50 µM,,> 50 µM,> 50 µM,,O=C(O)c1cc(-c2ccc(-c3ccccc3)cc2)[nH]n1
> 50 µM,,> 50 µM,> 50 µM,,O=C(O)c1cc(-c2ccc(N3CCCC3)cc2)[nH]n1
> 50 µM,> 50 µM,23.5 µM,> 50 µM,,O=C(O)c1cc(-c2cccc(Br)c2)[nH]n1
> 50 µM,,> 50 µM,> 50 µM,,COc1ccccc1-c1cc(C(=O)O)n[nH]1
> 50 µM,> 50 µM,22.5 µM,> 50 µM,,COc1cc(C)c(-c2cc(C(=O)O)n[nH]2)cc1C

# From ChEMBL document CHEMBL3593209, “5-Aryl-1H-pyrazole-3-carboxylic acids as selective inhibitors of human carbonic anhydrases IX and XII” (Bioorg Med Chem, 2015)
